Experiment [1] concerns the target T1, E. coli H6-DXR (Escherichia coli, UniProt P45568).
T1 construct: His6 (H6)
Kind of experiment: Inhibition of E. coli His-tagged DXR (photometric NADPH assay). The format is biochemical. As for the experimental part:
The inhibition potency of α,α-difluorophosphonohydroxamic acid derivatives was characterized by their IC50 value that was determined as previously described. […] Residual activity was measured after initiating the enzymatic reaction by addition of DXP.
The assays were performed at 37 °C in a 50 mM Tris/HCl buffer pH 7.5 containing 3 mM MgCl2 and 2 mM DTT. The concentrations of DXP and NADPH were 480 µM and 160 µM respectively. The decrease of absorbance at 340 nm due to NADPH oxidation was monitored to determine the initial rates. The retained values were the average of at least two measurements. The relative average deviation must be lower than 4%.
Inhibitor concentrations in the stock solutions were verified by spectrophotometric phosphorus determination. The study compounds 9b and 10a, 10b were tested against E. coli DXR using a photometric assay that was described earlier. H-DXR was pre-incubated during 2 min in the presence of the inhibitors 9b, 10a and 10b at different concentrations and NADPH. DXP was then added to measure the residual activity. The inhibitory potential of the tested compounds was quantified by determining the IC50 values. They were obtained by plotting the percentage of residual activity versus the Log of inhibitor concentration.

For experiment [2], the system named is E. coli XL1 Blue. Kind of experiment: Growth inhibition of E. coli XL1 Blue, paper disc diffusion on LB solid medium. It is filed as cell-based, Escherichia coli. The following applies: for Growth Inhibition Zone: 24 h at 37 °C; for colonies of tolerant bacteria in the inhibition zone / bacterial growth inhibition (in words): paper disc diffusion; for bacterial growth inhibition (in words): Figure 1A. As for the experimental part: The antimicrobial activity of α,α-difluorophosphonate 9a and 10 was determined using the paper disc diffusion method and was compared with the antimicrobial activity of the non-fluorinated phosphonate and phosphate compounds 3, 4 et 6. The diameters of the inhibition zone are given with respect to the amount of inhibitor deposited on the disc (Table 2).
(§1) The antimicrobial activity of hydroxamic acids 9b, 10a and 10b against E. coli XL1 Blue and fosmidomycin-resistant strain E. coli FosR [7], was determined using the paper disc diffusion method. LB agar plates (9 cm diameter) were inoculated with a suspension of bacteria (200 μL, mid-exponential phase). […] Growth inhibition was examined after 24 h incubation at 37 °C.
A general note: A growth-free zone around the sample is the usual read-out of agar diffusion tests.

For experiment [3], the system named is fosmidomycin-resistant strain E. coli FosR. Kind of experiment: Growth inhibition of fosmidomycin-resistant E. coli FosR, paper disc diffusion. It is filed as cell-based, Escherichia coli. The following applies: GlpT/UhpT transporters inoperative, Figure 1B. As for the experimental part: as §1
Experiment [4] concerns Plasmodium falciparum (K1 strain). On the set-up: method as in PMID 20568776. The following applies: racemic mixtures, intraerythrocytic forms, ref [14]; cited from earlier work.
Experiment [5] addresses T1, E. coli H6-DXR. The following applies: cited from earlier work.
The test system of experiment [6] is E. coli XL1 Blue. The following applies: cited from earlier work.

Structures are written as SMILES. Read-outs that look alike come from different tables or passages of the source. Marks after values point to notes of the source that are not given here.

Consider 13 molecules from PMC8397956 (Molecules, 2021).

T1 sequence (P45568 whole entry): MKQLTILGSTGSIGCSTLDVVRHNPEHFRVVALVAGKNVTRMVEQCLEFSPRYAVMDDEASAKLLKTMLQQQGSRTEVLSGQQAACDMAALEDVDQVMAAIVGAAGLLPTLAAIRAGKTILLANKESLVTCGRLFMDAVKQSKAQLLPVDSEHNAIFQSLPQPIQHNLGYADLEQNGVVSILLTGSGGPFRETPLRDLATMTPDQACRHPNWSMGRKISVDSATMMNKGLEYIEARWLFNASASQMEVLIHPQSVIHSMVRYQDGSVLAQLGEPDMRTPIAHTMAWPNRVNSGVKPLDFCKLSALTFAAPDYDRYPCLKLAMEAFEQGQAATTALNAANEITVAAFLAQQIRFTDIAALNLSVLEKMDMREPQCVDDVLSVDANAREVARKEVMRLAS

As for `CC(=O)N(O)CCC(F)(F)P(=O)(O)O` [Compound 9b, (1,1-Difluoro-3-(N-hydroxyacetamido)propyl)phosphonic acid], at E. coli H6-DXR [1], half-maximal inhibition (IC50) required 9 nM. For the same molecule, the “Growth Inhibition Zone” value in the experiment on E. coli XL1 Blue [2] (2 nmoles/disc) is on record as 15 mm. Further, in the experiment with E. coli XL1 Blue [2], the “colonies of tolerant bacteria in the inhibition zone” value (“colonies … in the inhibition zone” below) is “did not appear” and the “bacterial growth inhibition (in words)” value is “quite effective to inhibit bacterial growth”. Further, the “bacterial growth inhibition (in words)” value in experiment [3] is listed as “No growth inhibition”.
As for `CC(=O)N(O)CCC(F)P(=O)(O)O` (stereo not drawn) [Compound 7], the “activity compared with parent compounds fosmidomycin and 4b” value in experiment [4] is reported as “more active”.
Turning to `CN(O)C(=O)CCC(F)(F)P(=O)(O)O` [Compound 10b, (1,1-Difluoro-4-(hydroxy(methyl)amino)-4-oxobutyl)phosphonic acid], it took 17 nM to reach half-maximal inhibition against E. coli H6-DXR [1] (IC50). For the same molecule, the “Growth Inhibition Zone” value with E. coli XL1 Blue [2] (1.5 nmoles/disc) is given as 20 mm. In the experiment on E. coli XL1 Blue [2], the “colonies … in the inhibition zone” value is “did not appear” and the “bacterial growth inhibition (in words)” value is recorded as “quite effective to inhibit bacterial growth”.
Consider `CN(O)C(=O)CCC(F)P(=O)(O)O` (stereo not drawn) [Compound 8], for which the “activity compared with parent compounds fosmidomycin and 4b” value in experiment [4] is given as “more active”.
With `O=CN(O)CCCP(=O)(O)O` [Compound 3a, fosmidomycin], in the experiment on E. coli XL1 Blue [2] (2 nmoles/disc), the “Growth Inhibition Zone” value amounted to 35 mm. Besides, the “colonies … in the inhibition zone” value in the experiment with E. coli XL1 Blue [2] is reported as “colonies of tolerant bacteria”.
Regarding `O=CN(O)CCOP(=O)(O)O` [Compound 5a, fosfoxacin], the IC50 – broadly, the concentration needed to halve the response being measured – at E. coli H6-DXR [5] (ref [9]) is 342 nM.
For the molecule `CC(=O)N(O)CCOP(=O)(O)O` [Compound 5b], the IC50 on E. coli H6-DXR [5] (ref [9]) was 77 nM.
With `O=C(CCCP(=O)(O)O)NO` [Compound 4a], in the experiment on E. coli XL1 Blue [6] (400 nmoles/disc, ref [8]), the “Growth Inhibition Zone” value was 12 ** mm. For the same molecule, the 50% inhibitory concentration (IC50) on E. coli H6-DXR [5] (ref [8]) was 180 nM.
With `CN(O)C(=O)CCCP(=O)(O)O` [Compound 4b], the “Growth Inhibition Zone” value with E. coli XL1 Blue [6] (80 nmoles/disc, ref [8]) is given as 30 ** mm.
On E. coli H6-DXR [1], `O=C(CCC(F)(F)P(=O)(O)O)NO` [Compound 10a, (1,1-Difluoro-4-(hydroxyamino)-4-oxobutyl)phosphonic acid] gave an IC50 of 4600 nM. The “fold less efficient than N-methylated analogue 10b” value on E. coli H6-DXR [1] (ratio of IC50 values on E. coli DXR) is on record as 280. Besides, the “bacterial growth inhibition (in words)” value with E. coli XL1 Blue [2] is given as “no inhibition was observed”.
Regarding `O=C(CCOP(=O)(O)O)NO` [Compound 6a], the “Growth Inhibition Zone” value in the experiment with E. coli XL1 Blue [6] (400 nmoles/disc, ref [9]) is given as <10 * mm. On E. coli H6-DXR [5] (ref [9]), the IC50 was 2600 nM.
Consider `CN(O)C(=O)CCOP(=O)(O)O` [Compound 6b], for which the “Growth Inhibition Zone” value with E. coli XL1 Blue [6] (160 nmoles/disc, ref [9]) is reported as 20 * mm. On E. coli H6-DXR [5] (ref [9]), the IC50 is 46 nM.
In turn, `CC(=O)N(O)CCCP(=O)(O)O` [Compound 3b, FR-900098] showed an IC50 against E. coli H6-DXR [1] of 4 nM. Moreover, the “Growth Inhibition Zone” value in the experiment on E. coli XL1 Blue [6] (2 nmoles/disc, ref [9]) is 32 * mm.
